Laboratory results published in patent US20240246992A1, “MACROCYCLIC LRRK2 KINASE INHIBITORS” (LES LABORATOIRES SERVIER, priority 2021, published 2024).

Biological target: human recombinant LRRK2 protein (Homo sapiens, UniProt Q5S007)
Assay: LRRK2 kinase activity assay (ADP-Glo, LRRKtide peptide)
Assay type: biochemical
Settings: human recombinant LRRK2 wt, LRRKtide peptide and ATP, 1 h at 37° C.
Protocol: The inhibition of LRRK2 kinase was assessed using human recombinant LRRK2 protein in an in vitro peptide-based kinase assay.
LRRK2 Kinase reactions were carried out in 384-well white polystyrene plates in a final volume of 6 μl using ADP-Glo™ Kinase Assay kit (Promega Corp.). Compound and substrates (LRRKtide peptide and ATP) in assay buffer were first dispensed in wells. Kinase reaction was then started by the addition of human recombinant LRRK2 protein. After 1 h-incubation at 37° C., the enzymatic reactions was stopped by the addition of 6 μl of ADP-Glo Reagent-1 and an additional 40-minutes incubation at 23° C. (residual ATP depletion). A final 30-minutes incubation after 12 μL reagent-2 addition (ADP to ATP conversion and luciferin/luciferase reaction) was performed before luminescent signal acquisition (EnVision™ multimode plate reader—PerkinElmer, Inc.). Data from 10 individual concentrations of tested compounds (N=2) were fitted (XLfit™—ID Business Solutions Ltd) to deliver IC50s (compound concentration leading to 50% inhibition of reference enzymatic activity).
The compounds are dissolved to 5 mM in DMSO. When needed, solutions are sonicated in a bath sonicator.
Table 2 provides the pIC50 values of the compounds according to the invention, obtained using the above mentioned kinase assay. Activities are represented as +++, ++ and +, having the following meanings: • «+++» means an IC50<10 nM • «++» means an IC50<100 nM • «+» means an IC50<1 μM • «−» means an IC50>1 μM

human recombinant LRRK2 protein, sequence (Q5S007 whole entry): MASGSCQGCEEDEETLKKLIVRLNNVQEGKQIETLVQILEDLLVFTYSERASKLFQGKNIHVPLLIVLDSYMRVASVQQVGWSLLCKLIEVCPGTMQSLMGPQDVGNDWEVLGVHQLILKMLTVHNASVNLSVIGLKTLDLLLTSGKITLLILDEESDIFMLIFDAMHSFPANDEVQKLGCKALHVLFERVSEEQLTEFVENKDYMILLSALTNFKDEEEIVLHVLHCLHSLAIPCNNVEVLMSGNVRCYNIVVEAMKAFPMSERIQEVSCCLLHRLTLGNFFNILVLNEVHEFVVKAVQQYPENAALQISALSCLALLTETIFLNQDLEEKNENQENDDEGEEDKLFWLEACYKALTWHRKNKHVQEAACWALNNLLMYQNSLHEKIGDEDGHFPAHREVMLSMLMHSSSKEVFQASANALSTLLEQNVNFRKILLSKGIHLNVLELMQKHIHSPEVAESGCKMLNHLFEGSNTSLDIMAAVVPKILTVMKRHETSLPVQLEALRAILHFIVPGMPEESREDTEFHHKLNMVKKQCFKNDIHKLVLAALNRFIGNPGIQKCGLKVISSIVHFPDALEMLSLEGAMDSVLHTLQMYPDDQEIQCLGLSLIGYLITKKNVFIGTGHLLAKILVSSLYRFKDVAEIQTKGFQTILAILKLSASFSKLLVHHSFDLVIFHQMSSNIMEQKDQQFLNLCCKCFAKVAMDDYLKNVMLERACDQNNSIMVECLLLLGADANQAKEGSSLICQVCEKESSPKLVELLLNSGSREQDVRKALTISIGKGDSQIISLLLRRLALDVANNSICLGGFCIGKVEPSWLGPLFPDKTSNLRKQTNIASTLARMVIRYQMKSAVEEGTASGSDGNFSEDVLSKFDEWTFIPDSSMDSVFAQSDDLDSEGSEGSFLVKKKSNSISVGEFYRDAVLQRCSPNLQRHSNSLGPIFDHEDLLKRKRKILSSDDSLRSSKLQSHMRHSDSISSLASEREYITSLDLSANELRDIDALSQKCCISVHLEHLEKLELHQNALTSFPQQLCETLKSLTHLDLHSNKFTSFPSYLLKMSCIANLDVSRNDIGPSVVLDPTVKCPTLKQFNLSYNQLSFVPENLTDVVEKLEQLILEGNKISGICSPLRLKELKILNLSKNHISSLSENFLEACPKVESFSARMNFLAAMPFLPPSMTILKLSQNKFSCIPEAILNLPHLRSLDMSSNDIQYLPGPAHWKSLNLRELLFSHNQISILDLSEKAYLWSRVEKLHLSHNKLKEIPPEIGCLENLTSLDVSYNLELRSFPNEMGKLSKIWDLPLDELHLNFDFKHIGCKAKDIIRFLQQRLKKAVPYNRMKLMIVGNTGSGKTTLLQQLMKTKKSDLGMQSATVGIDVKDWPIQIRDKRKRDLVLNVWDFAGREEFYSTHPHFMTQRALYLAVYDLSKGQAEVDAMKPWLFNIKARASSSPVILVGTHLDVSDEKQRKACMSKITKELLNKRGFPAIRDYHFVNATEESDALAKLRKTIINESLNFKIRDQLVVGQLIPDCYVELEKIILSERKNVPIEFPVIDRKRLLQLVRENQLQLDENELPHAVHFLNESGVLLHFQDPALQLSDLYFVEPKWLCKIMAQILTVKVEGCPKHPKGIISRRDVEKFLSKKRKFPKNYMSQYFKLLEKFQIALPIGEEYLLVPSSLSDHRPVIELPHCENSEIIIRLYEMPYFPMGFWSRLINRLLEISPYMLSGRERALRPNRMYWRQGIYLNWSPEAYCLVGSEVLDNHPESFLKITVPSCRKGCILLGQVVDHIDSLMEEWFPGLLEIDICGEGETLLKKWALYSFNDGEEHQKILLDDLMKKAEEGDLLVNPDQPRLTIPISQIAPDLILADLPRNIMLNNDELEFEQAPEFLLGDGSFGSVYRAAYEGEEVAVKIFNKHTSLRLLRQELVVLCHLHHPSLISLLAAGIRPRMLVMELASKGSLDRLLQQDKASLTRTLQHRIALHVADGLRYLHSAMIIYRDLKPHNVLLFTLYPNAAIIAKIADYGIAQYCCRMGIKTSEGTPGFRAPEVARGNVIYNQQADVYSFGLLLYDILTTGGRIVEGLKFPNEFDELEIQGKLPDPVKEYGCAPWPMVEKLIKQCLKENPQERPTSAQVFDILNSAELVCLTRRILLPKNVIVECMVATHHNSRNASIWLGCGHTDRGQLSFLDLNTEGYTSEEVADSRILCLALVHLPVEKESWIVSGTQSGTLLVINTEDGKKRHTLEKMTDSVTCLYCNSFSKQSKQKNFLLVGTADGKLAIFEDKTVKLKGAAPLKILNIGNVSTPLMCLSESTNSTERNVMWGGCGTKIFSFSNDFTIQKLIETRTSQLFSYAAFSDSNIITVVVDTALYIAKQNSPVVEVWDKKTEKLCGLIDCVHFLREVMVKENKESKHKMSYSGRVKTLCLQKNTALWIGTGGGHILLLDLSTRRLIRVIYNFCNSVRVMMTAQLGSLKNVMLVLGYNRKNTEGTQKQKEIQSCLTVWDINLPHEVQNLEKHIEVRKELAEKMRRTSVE

Compound | IC50 [nM]
C[C@H]1CCOCCOc2nccc(n2)-c2n[nH]c3ccc(cc23)O1 [Example 16, (13S)-13-methyl-7,10,14-trioxa-5,19,20,23-tetraazatetracyclo[13.5.2.1^2,6. 0^18,21]tricosa-1(20),2(23),3,5,15(22),16,18(21)-heptaene] | < 10
C[C@H]1COCCCOc2nc(cc(N3CCCC3)n2)-c2n[nH]c3ccc(cc23)O1 [Example 19, (13S)-13-methyl-4-(pyrrolidin-1-yl)-7,11,14-trioxa-5,19,20,23-tetraazatetra cyclo[13.5.2.1^2,6.0^18,21]tricosa-1(20),2(23),3,5,15(22),16,18(21)heptaene] | < 10
C[C@H]1COCCCOc2nccc(n2)-c2n[nH]c3ccc(cc23)O1 [Example 26, (13S)-13-methyl-7,11,14-trioxa-5,19,20,23-tetraazatetracyclo[13.5.2.1^2,6.0^18,21]tricosa-1(20),2(23),3,5,15(22),16,18(21)-heptaene] | < 10
COC1CN(c2cc3nc(n2)OCCCOC[C@H](C)Oc2ccc4[nH]nc-3c4c2)C1 [Example 27, (13S)-4-(3-methoxyazetidin-1-yl)-13-methyl-7,11,14-trioxa-5,19,20,23-tetra azatetracyclo[13.5.2.1^2,6.0^18,21]tricosa-1(20),2(23),3,5,15(22),16,18(21) heptaene] | < 10
C[C@H]1CCOCCOc2cccc(n2)-c2n[nH]c3ccc(cc23)O1 [Example 28, (13S)-13-methyl-7,10,14-trioxa-19,20,23-triazatetracyclo [13.5.2.1^2,6.0^18,21] tricosa-1(20),2(23),3,5,15(22),16,18(21)-heptaene] | < 10
Cc1cc2nc(n1)OCCCOC[C@H](C)Oc1ccc3[nH]nc-2c3c1 [Example 29, (13S)-4,13-dimethyl-7,11,14-trioxa-5,19,20,23-tetraazatetracyclo[13.5.2.1^2,6.0^18,21]tricosa-1(20),2(23),3,5,15(22),16,18(21)-heptaene] | < 10
C[C@H]1CCOCCOc2nccc(n2)-c2n[nH]c3ccc(cc23)N1 [Example 30, (13S)-13-methyl-7,10-dioxa-5,14,19,20,23-pentaazatetracyclo[13.5.2.1^2,6.0^18,21]tricosa-1(20),2(23),3,5,15(22),16,18(21)-heptaene] | < 100
CC1(C)COCCCOc2ccc3[nH]nc(c3c2)-c2cnn(c2)C1 [Example 31, 7,7-dimethyl-9,13-dioxa-4,5,18,19-tetraazatetracyclo[12.5.2.1^2,5.0^17,20] docosa-1(19),2(22),3,14(21),15,17(20)-hexaene] | < 10
C[C@@H]1COCC[C@H](C)Oc2ccc3[nH]nc(c3c2)-c2cccc(n2)O1 [Example 33, (8R,13S)-8,13-dimethyl-7,10,14-trioxa-19,20,23-triazatetracyclo[13.5.2.1^2,6.0^18,21]tricosa-1(20),2(23),3,5,15(22),16,18(21)-heptaene] | < 100
COC1CN(c2cc3nc(n2)OCCOCC[C@H](C)Nc2ccc4[nH]nc-3c4c2)C1 [Example 34, (13S)-4-(3-methoxyazetidin-1-yl)-13-methyl-7,10-dioxa-5,14,19,20,23-pentaazatetracyclo[13.5.2.1^2,6.0^18,21]tricosa-1(20),2,4,6(23),15(22),16, 18(21)-heptaene] | < 10
C[C@H]1CCOCCOc2nc(cc(N3CCCC3)n2)-c2n[nH]c3ccc(cc23)N1 [Example 39, (13S)-13-methyl-4-(pyrrolidin-1-yl)-7,10-dioxa-5,14,19,20,23-pentaazatetra cyclo[13.5.2.1^2,6.0^18,21]tricosa-1(20),2(23),3,5,15(22),16,18(21)-heptaene] | < 10
Cc1cc2nc(n1)OCCOCC[C@H](C)Nc1ccc3[nH]nc-2c3c1 [Example 40, (13S)-4,13-dimethyl-7,10-dioxa-5,14,19,20,23-pentaazatetracyclo[13.5.2.1^2,6.0^18,21]tricosa-1(20),2(23),3,5,15(22),16,18(21)-heptaene] | < 10
C[C@@H]1CCOCCOc2cncc(n2)-c2n[nH]c3ccc(cc23)O1 [Example 41, (13R)-13-methyl-7,10,14-trioxa-4,19,20,23-tetraazatetracyclo[13.5.2.1^2,6.0^18,21]tricosa-1(20),2(23),3,5,15(22),16,18(21)-heptaene] | < 10
C[C@H]1CCOCCCc2cccc(c2)-c2n[nH]c3ccc(cc23)O1 [Example 43, (13S)-13-methyl-10,14-dioxa-19,20-diazatetracyclo[13.5.2.1^2,6.0^18,21]tricosa-1(20),2(23),3,5,15(22),16,18(21)-heptaene] | < 10

Now from value to compound:

IC50 [nM] | Compound
< 10 | C[C@@H]1CCOC[C@@H](C)Oc2ccc3[nH]nc(c3c2)-c2cncc(c2)O1 [Example 17, (8R,13R)-8,13-dimethyl-7,11,14-trioxa-4,19,20-triazatetracyclo[13.5.2.1^2,6. 0^18,21]tricosa-1(20),2(23),3,5,15(22),16,18(21)-heptaene]
< 10 | C[C@@H]1CCOC[C@H](C)Oc2ccc3[nH]nc(c3c2)-c2cncc(c2)O1 [Example 18, (8R,13S)-8,13-dimethyl-7,11,14-trioxa-4,19,20-triazatetracyclo[13.5.2.1^2,6. 0^18,21]tricosa-1(20),2(23),3,5,15(22),16,18(21)-heptaene]
< 100 | C[C@H]1CCOC[C@H](C)Oc2cncc(c2)-c2n[nH]c3ccc(cc23)O1 [Example 20, (8S,13S)-8,13-dimethyl-7,10,14-trioxa-4,19,20-triazatetracyclo[13.5.2.1^2,6. 0^18,21]tricosa-1(20),2(23),3,5,15(22),16,18(21)-heptaene]
< 10 | C[C@@H]1COCC[C@H](C)Oc2ccc3[nH]nc(c3c2)-c2cncc(c2)O1 [Example 21, (8R,13S)-8,13-dimethyl-7,10,14-trioxa-4,19,20-triazatetracyclo[13.5.2.1^2,6.0^18,21]tricosa-1(20),2(23),3,5,15(22),16,18(21)-heptaene]
< 10 | C[C@@H]1CCOC[C@H](C)Oc2cncc(c2)-c2n[nH]c3ccc(cc23)O1 [Example 22, (8S,13R)-8,13-dimethyl-7,10,14-trioxa-4,19,20-triazatetracyclo[13.5.2.1^2,6.0^18,21]tricosa-1(20),2(23),3,5,15(22),16,18(21)-heptaene]
< 10 | C[C@@H]1CCOC[C@@H](C)Oc2cncc(c2)-c2n[nH]c3ccc(cc23)O1 [Example 23, (8R,13R)-8,13-dimethyl-7,10,14-trioxa-4,19,20-triazatetracyclo[13.5.2.1^2,6.0^18,21]tricosa-1(20),2(23),3,5,15(22),16,18(21)-heptaene]
< 10 | C[C@H]1COCCOCCn2cc(cn2)-c2n[nH]c3ccc(cc23)O1 [Example 24, (13S)-13-methyl-8,11,14-trioxa-4,5,19,20-tetraazatetracyclo[13.5.2.1^2,5.0^18,21]tricosa-1(20),2(23),3,15(22),16,18(21)-hexaene]
< 100 | C[C@@H]1CCOCC[C@H](C)Oc2ccc3[nH]nc(c3c2)-c2cnn1c2 [Example 25, (6R,12S)-6,12-dimethyl-9,13-dioxa-4,5,18,19-tetraazatetracyclo[12.5.2.1^2,5.0^17,20]docosa-1(19),2(22),3,14(21),15,17(20)-hexaene]
< 10 | C[C@H]1CCOCCCn2cc(cn2)-c2n[nH]c3ccc(cc23)O1 [Example 32, (12S)-12-methyl-9,13-dioxa-4,5,18,19-tetraazatetracyclo[12.5.2.1^2,5.0^17,20] docosa-1(19),2(22),3,14(21),15,17(20)-hexaene]
< 10 | C[C@@H]1CCOCC[C@@H](C)n2cc(cn2)-c2n[nH]c3ccc(cc23)O1 [Example 35, (6R,12R)-6,12-dimethyl-9,13-dioxa-4,5,18,19-tetraazatetracyclo[12.5.2.1^2,5.0^17,20]docosa-1(19),2(22),3,14(21),15,17(20)-hexaene]
< 10 | C[C@@H]1CCOCC[C@H](C)n2cc(cn2)-c2n[nH]c3ccc(cc23)O1 [Example 36, (6S,12R)-6,12-dimethyl-9,13-dioxa-4,5,18,19-tetraazatetracyclo[12.5.2.1^2,5.0^17,20]docosa-1(19),2(22),3,14(21),15,17(20)-hexaene]
< 10 | C[C@H]1CCn2cc(cn2)-c2n[nH]c3ccc(cc23)OCCCO1 [Example 37, (8S)-8-Methyl-9,13-dioxa-4,5,18,19-tetraazatetracyclo[12.5.2.1^2,5.0^17,20] docosa-1(19),2(22),3,14(21),15,17(20)-hexaene]
< 10 | C[C@H]1CCOCC[C@H](C)n2cc(cn2)-c2n[nH]c3ccc(cc23)O1 [Example 38, (6S,12S)-6,12-dimethyl-9,13-dioxa-4,5,18,19-tetraazatetracyclo [12.5.2.1^2,5.0^17,20]docosa-1(19),2(22),3,14(21),15,17(20)-hexaene]
< 10 | C[C@@H]1CCOCCCn2cc(cn2)-c2n[nH]c3ccc(cc23)O1 [Example 42, (12R)-12-methyl-9,13-dioxa-4,5,18,19-tetraazatetracyclo [12.5.2.1^2,5.0^17,20]docosa-1(19),2(22),3,14(21),15,17(20)-hexaene]
